The record followed here is ChEMBL document CHEMBL1122460, “Preparation of some 10-[3-(dimethylamino)-1-propyl]-10H-pyrazino[2,3-b][1,4] benzothiazines as potential neuroleptics” (J Med Chem, 1983).

Assay type in all cases: protein assay
The target in assay [1] is Dopamine receptor. Kind of assay: Tested for displacement of rat striatal dopamine receptors by using [3H]apomorphine as radioligand.
Assay [2] concerns the target Dopamine receptor. Nature of the assay: Tested for displacement of rat caudate dopamine receptors by using [3H]spiperone as radioligand.
For assay [3], the target named is Dopamine receptor. Nature of the assay: Tested for displacement of rat caudate dopamine receptors by using [3H]apomorphine as radioligand.

Consider `CN(C)CCCN1c2cc(Cl)ccc2Sc2nccnc21`, for which the IC50 on Dopamine receptor [1] was determined as 5968 nM; on Dopamine receptor [2], 9166 nM.
In the case of `CN(C)CCCN1c2ccccc2Sc2nc(Cl)cnc21`, the 50% inhibitory concentration (IC50) was determined as 1222 nM on Dopamine receptor [3] and 553 nM on Dopamine receptor [2].
For `CN(C)CCCN1c2ccccc2Sc2ncc(Cl)nc21`, in that order: 67.3 nM and 62.1 nM.
On to `Cc1cnc2c(n1)N(CCCN(C)C)c1ccccc1S2`, for which the half-inhibitory concentration (IC50) turned out to be 103 nM at Dopamine receptor [1] and 382 nM on Dopamine receptor [2].

Usually IC50 stands for the concentration at which inhibition is half-maximal. A higher IC50 goes with weaker potency in that assay.
